Consider 1 compound from patent publication US11512053B2, “Arginine methyltransferase inhibitors and uses thereof” (priority 2013, dated 2022).

This assay deals with T1, full-length human PRMT3 isoform 1 (GST-tagged) (Homo sapiens, UniProt O60678).
T1 construct: GST-tagged PRMT3; made in house; host or cells: E. coli BL21(DE3) Gold
The assay is described as follows: PRMT3 Biochemical Assay (3H-SAM Flashplate, peptide substrate). The source says: General Materials. S-adenosylmethionine (SAM), S-adenosylhomocysteine (SAH), bicine, Tween20, dimethylsulfoxide (DMSO), bovine skin gelatin (BSG),), isopropyl-β-D-thiogalactopyranoside (IPTG), and Tris(2-carboxyethyl)phosphine hydrochloride solution (TCEP) were purchased from Sigma-Aldrich at the highest level of purity possible. ^3H-SAM was purchase from American Radiolabeled Chemicals with a specific activity of 80 Ci/mmol. 384-well streptavidin Flashplates were purchased from PerkinElmer.
Substrates. Peptide containing the classic RMT substrate motif was synthesized with an N-terminal linker-affinity tag motif and a C-terminal amide cap by 21st Century Biochemicals. The peptide was purified by high-performance liquid chromatography (HPLC) to greater than 95% purity and confirmed by liquid chromatography mass spectrometry (LC-MS). The sequence was Biot-Ahx-[…]-amide (SEQ ID NO.:11).
Molecular Biology: Full-length human PRMT3 (NM_005788.3) isoform 1 transcript clone was amplified from an HEK 293 cDNA library and subcloned into pGEX-KG (GE Life Sciences). The resulting construct encodes an N-terminal GST tag and a thrombin cleavage sequence ([…] […] […] […] S) (SEQ ID NO.:12) fused directly to Cys 2 of PRMT3.
Protein Expression. E. coli (BL21(DE3) Gold, Stratagene) made competent by the CaCl2) method were transformed with the PRMT3 construct and ampicillin selection. Protein over-expression was accomplished by growing the PRMT3 expressing E. coli clone and inducing expression with 0.3 mM IPTG at 16° C. The culture was grown for 12 hours, harvested by centrifugation, and stored at −80° C. for purification.
Protein Purification. […] GST-tagged PRMT3 was eluted with 50 mM Tris, 2 mM glutathione, pH 7.1 and 50 mM Tris, 20 mM glutathione, pH 7.1. Pooled fractions were dialysed in 20 mM Tris, 50 mM NaCl, 5% glycerol, 1 mM EDTA, 1 mM DTT, pH7.5 (Buffer B) and applied to a Q Sepharose Fast Flow column. GST-tagged PRMT3 was eluted by 500 mM NaCl in buffer B. Pooled fractions were dialyzed in 25 mM phosphate buffer, 100 mM NaCl, 5% glycerol, 2 mM DTT, pH 6.8 (Buffer C) and loaded on to a ceramic hydroxyapatite column. GST-tagged PRMT3 eluted with 25-400 mM phosphate in buffer C. Protein was concentrated and buffer was exchanged to 20 mM Tris, 150 mM NaCl, 5% glycerol, 5 mM β-mercaptoethanol, pH7.8 by ultrafiltration. The purity of recovered protein was 70%.
General Procedure for PRMT3 Enzyme Assays on Peptide Substrates. The assays were all performed in a buffer consisting of 20 mM Bicine (pH=7.6), 1 mM TCEP, 0.005% BSG, and 0.002% Tween 20, prepared on the day of use. Compounds in 100% DMSO (1 ul) were spotted into a polypropylene 384-well V-bottom plates (Greiner) using a Platemate Plus outfitted with a 384-channel head (Thermo Scientific). DMSO (1 ul) was added to Columns 11, 12, 23, 24, rows A-H for the maximum signal control and 1 ul of SAH, a known product and inhibitor of PRMT3, was added to columns 11, 12, 23, 24, rows I-P for the minimum signal control. A cocktail (40 ul) containing the PRMT3 enzyme was added by Multidrop Combi (Thermo-Fisher). The compounds were allowed to incubate with PRMT3 for 30 min at room temperature, then a cocktail (10 ul) containing SAM and peptide was added to initiate the reaction (final volume=51 ul). The final concentrations of the components were as follows: PRMT3 was 0.5 nM, ^3H-SAM was 100 nM, non-radiolabeled SAM was 1.8 uM, peptide was 330 nM, SAH in the minimum signal control wells was 1 mM, and the DMSO concentration was 2%. The assays were stopped by the addition of potassium chloride (10 ul) to a final concentration of 100 mM. 50 ul of the reaction in the 384-well polypropylene plate was then transferred to a 384-well Flashplate and the biotinylated peptides were allowed to bind to the streptavidin surface for at least 1 hour before being washed once with 0.1% Tween20 in a Biotek ELx405 plate washer. […]

Like-named read-outs stand apart in the source and are kept apart here.

The IC50 is the concentration that gives 50% inhibition. A low value points to higher potency.

T1 sequence (O60678 with tags, fused parts or gaps): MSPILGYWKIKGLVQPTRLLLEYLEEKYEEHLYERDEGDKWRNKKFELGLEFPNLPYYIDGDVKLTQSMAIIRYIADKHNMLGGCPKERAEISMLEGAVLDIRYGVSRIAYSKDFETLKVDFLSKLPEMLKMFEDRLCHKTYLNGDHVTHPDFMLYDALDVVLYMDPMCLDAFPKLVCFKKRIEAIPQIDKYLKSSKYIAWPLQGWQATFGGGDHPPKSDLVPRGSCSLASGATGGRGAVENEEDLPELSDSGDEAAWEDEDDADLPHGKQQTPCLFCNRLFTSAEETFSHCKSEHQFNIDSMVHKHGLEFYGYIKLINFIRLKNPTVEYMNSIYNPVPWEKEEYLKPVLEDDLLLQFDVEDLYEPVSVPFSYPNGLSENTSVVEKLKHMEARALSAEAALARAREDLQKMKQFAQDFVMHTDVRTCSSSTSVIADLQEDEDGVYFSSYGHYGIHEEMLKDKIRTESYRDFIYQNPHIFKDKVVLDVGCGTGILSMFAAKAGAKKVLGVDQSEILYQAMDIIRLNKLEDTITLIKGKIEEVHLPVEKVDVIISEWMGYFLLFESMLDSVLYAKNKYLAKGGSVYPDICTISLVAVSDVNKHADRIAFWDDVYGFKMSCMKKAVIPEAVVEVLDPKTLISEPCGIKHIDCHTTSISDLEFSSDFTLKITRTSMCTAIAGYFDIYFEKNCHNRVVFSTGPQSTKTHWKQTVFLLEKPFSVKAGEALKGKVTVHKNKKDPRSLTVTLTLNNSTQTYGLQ

On to `CN(CCN)Cc1c[nH]nc1CCc1ccccc1` [Compound 9], for which the IC50 was 3.01 to 10 µM. For the same compound, the IC50 (single experiment or average of multiple experiments) is 8.93 µM.
